Measured values as given in patent publication US6608179B1, “Antibodies, that bind to HIV-2 transmembrane glycoprotein homodimer (gp 80)” (Institut Pasteur, priority 1988, dated 2003).

Experiments:
HIV-2 infected CEM cells = experiment: Effect of glucosidase inhibitor on production of viral proteins in HIV-2 infected cells; type: cell-based; settings: castanospermine 1 mM, 16 hr [35S] methionine labeling, culture supernatants
Protocol: To confirm that gp80 was produced during the processing of envelope precursor, HIV-2 infected cells were labeled with [^35S] methionine in the absence or presence of the glucosidase inhibitor, castanospermine (Saul et al., 1983). Culture supernatants were then assayed by immunoprecipitation using an HIV-2 positive patient serum which recognizes several viral proteins.

HIV-2 infected cells [1] = settings: in the presence of monensin; previous study (Rey et al., 1989); cited from earlier work
[2] = biological target: T1, binding of mAb 1H8 to gp80 (Human immunodeficiency virus type 2 subtype A, UniProt P04577); experiment: Peptide blocking of antibody signals in Western blot of HIV-2 virus pellet; settings: 1 μg/ml of peptide p39′
T1 construct: cleaved by the cellular protease to give the extracellular glycoprotein gp125 and the transmembrane glycoprotein dimer gp80; endogenous in cells; host or cells: virus pellet from culture medium of HIV-2 infected CEM cells
T1 sequence (P04577 512-858 limits assumed): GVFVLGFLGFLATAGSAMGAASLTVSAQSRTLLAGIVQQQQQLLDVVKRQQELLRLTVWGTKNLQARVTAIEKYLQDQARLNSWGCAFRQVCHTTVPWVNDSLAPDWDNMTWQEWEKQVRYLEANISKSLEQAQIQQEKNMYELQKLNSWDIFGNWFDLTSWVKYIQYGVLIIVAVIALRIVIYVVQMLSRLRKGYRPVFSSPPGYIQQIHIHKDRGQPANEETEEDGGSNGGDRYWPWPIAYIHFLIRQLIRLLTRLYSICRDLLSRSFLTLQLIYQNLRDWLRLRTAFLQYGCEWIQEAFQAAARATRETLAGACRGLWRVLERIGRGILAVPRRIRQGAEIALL
Protocol: Extracts from the HIV-2 virus pellets were analyzed by Western blot assay using mAb 1H8 (section mAb) or anti-gp300 polyclonal antibodies (section S). Incubation with each antibody was carried out in the absence (lanes −) or presence (lanes +) of 10 μg of peptide p39′. The results of the autoradiography are shown.
To show the specificity of mAb 1H8 reactivity with gp80, a Western blot assay using extracts from HIV-2 virus pellet was carried out. After the transfer of proteins, nitrocellulose sheets were incubated with mAb 1H8 or anti-gp300 polyclonal antibodies in the absence or presence of 1 μg/ml of peptide p39′ (FIG. 5). […] In addition, a signal for gp36 was observed, but only after a prolonged exposure of the autoradiogram. […] These observations confirm that the reactivity of mAb 1H8 should be with the 26 amino acid residue corresponding to the amino acids 579 to 604 in the transmembrane glycoprotein of HIV-2. Consequently, a sequence corresponding to that of peptide p39′ should be present in gp80. The reactivity of anti-gp300 antibodies was not modified by peptide p39′. Therefore, these antibodies should interact with other epitopes than that corresponding to peptide 39′. […]

HIV-2 infected cells [3] = experiment: Incorporation of labeled sugars into HIV-2 glycoproteins in infected cells; type: cell-based; settings: [3H] glucosamine, fucose, mannose; data not shown
Excerpt: Extracts from HIV-2 infected cells metabolically labeled with [^3H] glucosamine and [^3H] fucose were immunoprecipitated using mAb 1H8 and anti-gp300 polyclonal antibodies. In accord with the previous results (FIGS. 3-6), anti-gp300 antibodies immunoprecipitated sugar labeled gp300, gp140, gp125, and gp80, whereas mAb 1H8 immunoprecipitated gp300, gp140, and gp80. All these proteins incorporated [^3H] glucosamine, whereas incorporation of [^3H] fucose mainly occurred in gp125 and gp80 (FIG. 7a). In these experiments, the labeling of gp36 with [^3H] glucosamine was observed faintly after a prolonged exposure of the autoradiogram (data not shown; similar to FIG. 1, Rey et al., 1989). The glycoprotein gp80 also can incorporate [^3H] mannose as is the case for gp300, gp140, and gp125 (data not shown).
For metabolic labeling of proteins, infected cells were incubated for 16 hours at 37° C. in MEM culture without L-methionine and serum, but supplemented with 200 μCi/ml [^35S] methionine. For metabolic labeling of glycoproteins, infected cells were incubated for 16 hours at 37° C. in MEM culture medium lacking serum and glucose but supplemented with 200 μCi/ml ^3H-Fucose or 200 μCi/ml ^3H-glucosamine.

O[C@H]1[C@H](O)[C@@H](O)CN2CC[C@H](O)[C@H]12 [castanospermine]
production of gp80 and gp125 (HIV-2 infected CEM cells): markedly reduced
production of the major core protein (p26) (HIV-2 infected CEM cells): not significantly affected

CC[C@@]1([C@@H]2O[C@@H]([C@H]3O[C@@](O)(CO)[C@H](C)C[C@@H]3C)C[C@@H]2C)CC[C@H]([C@]2(C)CC[C@]3(C[C@H](O)[C@@H](C)[C@@H]([C@@H](C)[C@@H](OC)[C@H](C)C(=O)O)O3)O2)O1 [monensin]
135-kDa protein (gp135) in HIV-2 infected cells (HIV-2 infected cells [1]): accumulated

VTAIEKYLQDQARLNSWGCAFRQVCH [peptide p39′]
effect of peptide on Western blot signals obtained with mAb 1H8 [2]: completely abolished
effect of peptide on reactivity of anti-gp300 antibodies [2]: not modified

tunicamycin
incorporation of labeled sugars in gp80 and other glycoproteins (HIV-2 infected cells [3]): completely blocked
